Source: ChEMBL document CHEMBL1126993, “Synthesis of oxazolidinone phospholipid analogue as a new inhibitor of phospholipase A2” (Bioorg Med Chem Lett, 1993)

What was measured:
Phospholipase A2 [1] = molecular target: T1, Phospholipase A2 (Homo sapiens, UniProt P04054); assay: Tested for binding affinity of compound against Phospholipase A2 (PLA2); settings: Gloydius blomhoffi
Target sequence in this assay (P04054 23-148 limits assumed): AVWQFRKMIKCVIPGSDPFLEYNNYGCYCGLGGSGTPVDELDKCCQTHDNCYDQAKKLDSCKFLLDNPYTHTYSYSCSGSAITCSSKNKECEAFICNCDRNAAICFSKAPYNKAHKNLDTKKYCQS

Phospholipase A2 [2] = molecular target: T1, Phospholipase A2; assay: Tested for inhibitory activity of compound against Phospholipase A2 (PLA2); showed no significant inhibitory activity; parameters: species or system Gloydius blomhoffi
Target sequence in this assay (P04054 whole entry): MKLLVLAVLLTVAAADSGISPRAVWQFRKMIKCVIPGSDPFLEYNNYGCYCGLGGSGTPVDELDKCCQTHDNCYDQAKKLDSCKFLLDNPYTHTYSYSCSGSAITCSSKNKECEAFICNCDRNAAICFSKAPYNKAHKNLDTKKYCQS

| SMILES | 1/Ki (Phospholipase A2 [1]) [M⁻¹] | IC50 (Phospholipase A2 [2]) |
| --- | --- | --- |
| CCCCCCCCCCCC(=O)N[C@H](CCCC)COP(=O)([O-])OCC[N+](C)(C)C | 270000 |  |
| CCCCCCCCCCCC(=O)N1C(=O)OC[C@@H]1COP(=O)([O-])OCC[N+](C)(C)C | 45000 |  |
| CCCCCCCCCCCC(=O)N1C(=O)OC[C@H]1COP(=O)([O-])OCC[N+](C)(C)C |  | Not Active |
